Where two headings read alike, the source gives them in different places.
How the values were obtained:
L. major promastigotes [1] = test: L. major promastigote drug susceptibility assay (alamar blue, 384-well); assay type: cell-based, Leishmania major
Method: Promastigotes were grown in vented T75 tissue culture flasks and maintained at 28°C. Promastigote cultures were initiated at 10^5 parasites per mL and subcultured every 3–4 days. L. major promastigote counts were performed in duplicate using a hemocytometer and particle counter (Beckman Coulter, Fullerton, CA). For HTS assays, L. major promastigote cultures were harvested during exponential growth phase (∼2.0–3.0×10^7 parasites/mL) and were not maintained past passage 20.
The final test compound concentration was 10 µM with a constant DMSO concentration of 1% in each assay well.
The L. major promastigote drug susceptibility assay was performed in a final volume of 25 µL using our previously described 384-well microtiter plate format,[39]. For automated HTS procedures, L. major promastigotes (5,000 parasites/22 µL) in complete growth medium were seeded into each well of the microtiter plates using a MAPC2 bulk dispenser (Titertek, Huntsville, AL). Test and control compounds (3 µL) were added to individual wells using a Velocity 11 V-prep (Menlo Park, CA) liquid handling system, equipped with a 384-well dispensing head, followed by centrifugation at 50 g for 1 min. […] Assay plates were allowed to incubate for 44 h at 28°C in the presence of 5% CO2. Five µL of alamar blue reagent were added to each assay plate well and incubated for 4 h at 28°C with 5% CO2. Data were captured on a Molecular Devices SpectraMax M5 (excitation560; emission590). Individual assay plate Z-factors were derived from the vehicle and positive controls, and data from plates were used only if Z-factors were >0.5 [50].
The assays were performed in duplicate with a final 10-point concentration range spanning 0.01–5.00 µM.

[2] = system: L. major axenic amastigote-like population; test: L. major axenic amastigote-like alamar blue assay (pH 4.9); assay type: cell-based, Leishmania major; conditions: for growth inhibitory activity in axenic amastigote-like assay: pH 4.9
A549 = test: Mammalian cell line specificity assay (alamar blue); assay type: cell-based, human
Method: (§1) Mammalian cells were cultured and maintained according to ATCC specifications (ATCC, Manassas, VA). Cell line drug susceptibility assays were performed in final volumes of 25 µL using our previously described 384-well microtiter plate format,[39]. […] Test and control compounds were added to individual wells as described above. Vehicle and positive controls were 1% DMSO and 10% DMSO, respectively (final well concentrations). Assay plates were incubated for 44–46 h at 37°C in the presence of 5% CO2 and growth inhibitory effects were determined as described above. Five µL of alamar blue reagent was added to each well and incubated for 2–4 h. Data were captured as described above.

HeLa = test: as above; assay type: cell-based, human; conditions: 44–46 h, alamar blue, read-out: HeLa EC50 (AVE±SD)
Method: as §1

IMR-90 = test: as above; assay type: cell-based, human; conditions: 44–46 h, alamar blue, read-out: IMR90 EC50 (AVE±SD)
Method: as §1

MDA-MB-231 = test: as above; assay type: cell-based, human; conditions: 44–46 h, alamar blue, read-out: MDA EC50 (AVE±SD)
Method: as §1

PC-3 = test: as above; assay type: cell-based, human; conditions: 44–46 h, alamar blue, read-out: PC-3 EC50 (AVE±SD)
Method: as §1

L. major = test: In vivo murine CL efficacy study (footpad lesion model); design: species or system Balb/c mice; conditions: for decrease in footpad thickness: 40 mg/kg; for reduction in footpad thickness: 160 mg/kg, vs vehicle
Method: Adult female Balb/c mice (6 to 10 week old) were obtained from (Charles River Laboratories, Wilmington, MA) and maintained as outlined by the National Institutes of Health Guide for the Care and Use of Laboratory Animals. All in vivo studies were carried out in accordance with protocols approved by the Institutional Animal Care and Use Committee (IACUC) at the University of Miami (IACUC number C01-08). Food and water were supplied ad libitum. […] Animals were examined daily to determine lesion development. […] Control mice were injected with an equivalent amount of vehicle control or amphotericin B (12.5 mg/kg). […] Mice were euthanized in a CO2 chamber at day 21.

L. major promastigotes [3] = test: Flow cytometer-based growth inhibition and cytotoxicity assay; conditions: 48 h, read-out: L. major promastigote EC50 (AVE±SD) Confirmation Flow Cytometry
[4] = Leishmania major, 48 h, compounds from commercial supplier, 44 h + 4 h alamar blue, 28°C, read-out: L. major promastigote EC50 (AVE±SD) Confirmation Alamar Blue
[5] = Leishmania major, Table S1, PMLSC library samples, 10-point 0.01–5.00 µM, read-out: EC50 Ave ± SD, Lm
[6] = Leishmania major, pH 4.9, 144 h, 32°C, read-out: L. major axenic amastigote-like EC50 (AVE±SD) Confirmation Alamar Blue
[7] = Homo sapiens, A549, 44–46 h, alamar blue, read-out: A549 EC50 (AVE±SD)
[8] = Homo sapiens, A549, Table S1, PMLSC library samples, read-out: EC50 Ave ± SD, A549
[9] = Leishmania major, read-out: EC50 Ave ± SD, Lm
[10] = Leishmania major, 144 h, pH 4.9, read-out: L. major axenic amastigote-like EC50 (AVE±SD) Confirmation Alamar Blue

Compound | EC50 (A549; [7]) [nM] | EC50 (A549; [8]) [nM] | EC50 (HeLa; Homo sapiens, HeLa) [nM] | EC50 (IMR-90; Homo sapiens, IMR-90) [nM] | EC50 (MDA-MB-231; Homo sapiens, MDA-MB-231) [nM] | EC50 (PC-3; Homo sapiens, PC-3) [nM] | EC50 (L. major promastigotes [3]; Leishmania major) [nM] | EC50 (L. major promastigotes [1]; [9]) [nM] | EC50 [2, 10] [nM] | also measured
CCN(CC)C(=S)SSC(=S)N(CC)CC [Disulfiram] | > 50000 | 2160 ± 1220 | > 50000 | > 50000 | > 50000 | > 50000 | 190 ± 60 | – | – | EC50 (L. major promastigotes [1]; [4]): 500 ± 50 nM; EC50 (L. major promastigotes [1]; [5]): 263 ± 20 nM; EC50 [2, 6]: 130 ± 10 nM; growth inhibitory activity in axenic amastigote-like assay [2]: comparable to amphotericin B; decrease in footpad thickness (L. major; day 14): 25%; decrease in footpad thickness (L. major; day 21): 35%; reduction in footpad thickness (L. major; day 14 post-infection): ~43%; reduction in footpad thickness (L. major; day 21 post-infection): 50%
O=C1C2ON(c3ccc(Br)cc3)C(c3ccccn3)C2C(=O)N1C1CCCCC1 (stereo not shown) [CID 2946668] | – | > 5000 | – | – | – | – | 350 ± 60 | 515 ± 66 | 1200 ± 400 | –
CC(C)(C)c1ccc(C(=O)C2CCCN(C3CCC3)C2)cc1 (stereo not shown) [CID 16187595] | – | – | – | – | – | – | 40 ± 10 | 14 ± 13 | 2300 ± 200 | EC50 (A549; Homo sapiens, A549, read-out: EC50 Ave ± SD, A549): > 5000 nM
Cc1ccc(S(=O)(=O)c2ccc(Oc3cccc(C)c3)cc2)cc1 [CID 786799] | – | > 5000 | – | – | – | – | 2220 ± 110 | 180 ± 35 | 3600 ± 130 | –
C[C@@]1(CO)[C@H](O)CC[C@@]2(C)[C@H]1CC[C@H]1C[C@@H]3C[C@@]12CC[C@]3(O)CO [Aphidicolin, reference compound] | > 50000 | > 5000 | > 50000 | > 50000 | > 50000 | > 50000 | 390 ± 110 | – | – | EC50 (L. major promastigotes [1]; [4]): 220 ± 20 nM; EC50 (L. major promastigotes [1]; [5]): 121 ± 20 nM; EC50 [2, 6]: 50 ± 10 nM; growth inhibitory activity in axenic amastigote-like assay [2]: comparable to amphotericin B
Pentamidine Isethionate [reference compound] | – | – | – | – | – | – | – | – | – | EC50 (L. major promastigotes [1]; read-out: EC50 Ave ± SD, Lm, Table S1, PMLSC library samples, 10-point 0.01–5.00 µM): 46 ± 12 nM; primary hit (≥50% inhibition of signal readout) (L. major promastigotes [1]; single concentration 10 µM, LOPAC, UP-CMLD DP validation set or PMLSC library): primary hits; EC50 ([2]; read-out: L. major axenic amastigote-like EC50 (AVE±SD) Confirmation Alamar Blue, pH 4.9, 144 h, 32°C): 1260 ± 40 nM; EC50 (A549; read-out: A549 EC50 (AVE±SD), 44–46 h, alamar blue): > 50000 nM; EC50 (A549; read-out: EC50 Ave ± SD, A549, Table S1, PMLSC library samples): > 5000 nM; EC50 (HeLa): > 50000 nM; EC50 (IMR-90): > 50000 nM; EC50 (MDA-MB-231): > 50000 nM; EC50 (PC-3): > 50000 nM; EC50 (L. major promastigotes [3]; 28°C, ViaCount, 0.1–50 µM): 730 ± 390 nM
Cc1cc(C)nc(/N=C2\SNSC2Cl)c1 (stereo not shown) [CID 757789] | – | > 5000 | – | – | – | – | 1940 ± 150 | 353 ± 25 | 3200 ± 800 | –
COc1cccc2c(=O)c(C/C=C(/C)Cl)c(C)[nH]c12 [CID 760847] | – | > 5000 | – | – | – | – | 200 ± 50 | 108 ± 23 | 210 ± 90 | growth inhibitory activity in axenic amastigote-like assay [2]: comparable to amphotericin B
C[C@@H]1[C@H](O)[C@@H](C)/C=C/C=C/C=C/C=C/C=C/C=C/C=C/[C@H](O[C@@H]2O[C@H](C)[C@@H](O)[C@H](N)[C@@H]2O)C[C@@H]2O[C@](O)(C[C@@H](O)C[C@@H](O)[C@H](O)CC[C@@H](O)C[C@@H](O)CC(=O)O[C@H]1C)C[C@H](O)[C@H]2C(=O)O [Amphotericin B, reference compound] | > 50000 | – | > 50000 | 8700 ± 2400 | > 50000 | > 50000 | 190 ± 60 | – | – | EC50 (L. major promastigotes [1]; [4]): 210 ± 10 nM; EC50 (L. major promastigotes [1]; Leishmania major, assay optimization, read-out: EC50, L. major promastigotes, 384-well format): 207 ± 11 nM; EC50 [2, 6]: 380 ± 10 nM; reduction in footpad swelling (in vivo effects, summary) (L. major; summary statement in results/discussion): 85–90%
Cc1ccc(OCCCCn2ccnc2)c(Cl)c1 [CID 2851545] | – | > 5000 | – | – | – | – | 340 ± 480 | 133 ± 35 | 11700 ± 500 | –
CCN(CC)CCN(C)C1CCC(c2ccccc2)CC1 (stereo not shown) [CID 742546] | – | > 5000 | – | – | – | – | 430 ± 300 | 827 ± 116 | > 50000 | –
CN(C)CCOc1ccccc1Cc1ccccc1 [Phenytoloxamine, reference compound] | > 50000 | > 5000 | > 50000 | > 50000 | > 50000 | > 50000 | 300 ± 30 | 502 ± 87 | > 50000 | –
Cc1[nH]c2c(Cl)cccc2c(=O)c1CN1CCCC1 [CID 728862] | – | > 5000 | – | – | – | – | 1770 ± 120 | 392 ± 50 | 4300 ± 800 | –

From PMC2765639 (PLoS Neglected Tropical Diseases, 2009)
